Test results from patent US20050233984A1, “Composition for preventing or treating degenerative brain diseases comprising a hydrolysate of ginsenosides” (Digital Biotech Co., Ltd., priority 2002, published 2005).

Key:
[1] = system: neuroblastoma B103 cell line; assay: MTT test: anti-oxidative effect, H2O2 in place of beta-amyloid; assay type: cell-based; conditions: B103 cells, H2O2-only control = 100%
Description: (§1) 5×10^3 cells of neuroblastoma B103 cell line (donated by Dr. David Schubert of the Salk Institute, USA) were placed in each well of a 96-well plate with 100 μl of DMEM (Dulbecco's Minimal Eagle's Medium) containing 10% fetal bovine serum (FBS), and cultured at 37° C. under 8% CO2 for 1 day. After changing the medium to serum-free DMEM, the cells were treated with various concentrations of test compounds and, 1 hour later, with 25 μM of beta-amyloid (25-35 peptide; US peptide, CA, USA). The cells were cultured at 37° C. for 18 hours, treated with 15 μl of MTT solution [10 mg/ml solution of 3-(4,5-dimethyl-2-thiazolyl)-2,5-diphenyl-2H-tetrazolium bromide in phosphate buffered saline (PBS)], and allowed to react at 37° C. for 3 to 4 hours. 100 μl of lysis buffer (10% SDS, 50% dimethylformamide, pH 4.7) was added to the wells, and the cells were cultured overnight at room temperature and relative humidity of 90%. Optical density (OD) of each well was measured at […] and 630 nm, respectively, using a scanning multiwell spectrophotometer, and then the OD value at 630 nm was subtracted from that at 570 nm.
In order to examine whether compounds originating from ginseng can block oxidative stress, the procedure of Example 1 was repeated except for using 1 μM of H2O2 in place of beta-amyloid, and the survival rates of the neural cells were determined.

[2] = system: neuroblastoma B103 cell line; assay: MTT test: apoptosis induced by staurosporin; assay type: cell-based; conditions: B103 cells, staurosporin-only control = 100%
Description: as §1
Further, in order to examine whether compounds originating from ginseng can block apoptosis, […], and the survival rates of the neural cells were determined.

[3] = Degree of BBB penetration: pharmacokinetics in blood and brain by LC-mass; assay type: in vivo, Sprague-Dawley rat; conditions: SD rat; for detection of the peak in the brain tissue sample: 15 minutes after administration of 1 mg/kg of Rg1 or Rb1, FIGS. 10a and 10b
Description: A male Sprague-Dawley rat (weight 250-300 g) was lightly anesthetized with ether and catheterized with a polyethylene tube (PE-50) in the femoral artery and vein. After the rat recovered, a saline solution containing 1 mg/kg of Rg1 or Rb1 was administered into the femoral vein through the intravenous bolus administration. 300 μl blood samples were collected from the rat's femoral artery at 2, 5, 10, 15, 20, 30, 45 and 60 minutes after the administration. Each blood sample was centrifuged to obtain 100 μl of plasma. A plasma sample was prepared as in (2) of step 1 with the plasma. 20 μl of the sample was injected into the LC mass system as in Step 1, and ginsenosides Rg1 and Rb1 and their metabolites PPD and PPT were quantified. The plasma concentrations of ginsenosides and their metabolites were calculated in the forms of weight per plasma (ml) (in case of ginsenosides) or peak size (in case of metabolites).
Immediately after collecting the blood samples, the rats were decapitated and brain tissues were obtained therefrom. The tissues were rinsed with ice-cooled saline, placed in a 15 ml Falcon tube and then weighed precisely. Acetonitrile was added to the tube in an amount twice the weight of the tissue sample, and the sample was homogenized using a tissue homogenizer (Ultra-Turrax T25, JANKE&KUNKEL IKA-Labortechnik). The mixture was centrifuged at 3,000 rpm for 20 minutes. 300 μl of the resulting supernatant was dried in a speed-vac, and 300 μl of acetonitrile was added thereto. 20 μl of the resulting mixture was injected in the LC mass system as in Step 1 to quantify the concentrations of ginsenosides and their metabolites in the brain, and the measured concentrations were represented by weight per gram of the brain tissue or peak size.
Separation and detection conditions for ginsenosides Rg1 and Rb1 were as described in Step 1, and those for metabolites PPD and PPT were as follows:
The transfer rate of the substances into the brain (Kbrain) can be represented by the ratio of the mean concentration of the substance in the brain (Cmean,brain) to the mean plasma concentration (Cmean,plasma) as in Equation 1. [formula]
The mean concentration of a substance can be determined by dividing the area under the concentration-time curve corresponding to time 0 to t by t and, accordingly, the transfer rate of the substance into the brain (Kbrain) can be calculated by Equation 2 shown below. [formula]

α-secretase = assay: sAPPα secretion by Western blotting in B103 cells; assay type: cell-based; conditions: 1 μM, 18 hours, compared with untreated control, FIG. 5
Description: In order to examine whether the ginseng-originated compounds can inhibit beta-amyloid production, the activity of α-secretase, which cleaves beta-amyloid, was examined.
1×10^6 cells of neuroblastoma B103 cell line (donated by Dr. David Schubert of the Salk Institute, USA), which secretes APP (amyloid precursor protein), were plated on a […] with 100 μl of DMEM medium containing 10% FBS (Fetal Bovine Serum) and cultured overnight at […] under 8% CO2. The medium was replaced with serum-free DMEM (Gibco, USA), and PPD, PPT or PDBu (phorbol-12, 13-dibutyrate: Sigma Co., USA) was added thereto at a concentration of 1 μM each. The cells were cultured further for 18 hours. The supernatant was isolated from each culture solution and concentrated through a concentration filter (viva spin centricon, obtained from: Vivascience, Binbrook Hill, Binbrook, England). The concentrate was prepared to have a protein concentration of 2 μg/ml and then subjected to electrophoresis on a 8% SDS-PAGE gel.
Protein bands on the gel were transferred to PVDF (polyvinylidene fluoride) membrane (Millipore Co., Bedford, Mass., USA) and blocked with 5% skim milk. The bands on PVDF were reacted with sAPPα-specific antibody 6E10 (1:2000 dilution, Cat. No. 320-05, Senetek, Maryland heights, Mo., USA) at room temperature for 2 hours. […] The protein bands were then quantified via image analysis.

synaptophysin = assay: Synaptic density: synaptophysin in hippocampus and cortex by Western blotting; assay type: in vivo; conditions: 0.5 mg/kg intraperitoneally once a day for 4 days, C57BL/6 mice
Description: 1 mg/kg of ginsenoside Rc or Mc, or compound Y or K, or 0.5 mg/kg of PPD or PPT was intraperitoneally administered to C57BL/6 mice (9-week old, weight: about 25 g) once a day for 4 days. Then, the brain of the mouse was removed and the hippocampus and cortex were separated therefrom. The amounts of synaptophysin, a protein marker of synaptic vesicle, in the hippocampus and cortex were quantified with Western blotting and an image analysis with a densitometer (LAS100, Fujifilm, Japan) employing a synaptophysin-specific antibody (Cat #902 314, Boehringer Mannheim, Germany).

[4] = test compound 1 μM alone, without H2O2
[5] = test compound 1 μM + 0.1 μM staurosporin
[6] = test compound 1 μM alone, without staurosporin

| Structure (SMILES) | Survival rate (%) ([1]; test compound 1 μM + 1 μM H2O2) | Survival rate (%) [1, 4] | Survival rate (%) [2, 5] | Survival rate (%) [2, 6] | detection of the peak in the brain tissue sample [3] | sAPPα secretion level (α-secretase) | amount of synaptophysin in cortex (synaptophysin) | amount of synaptophysin in hippocampus (synaptophysin) | Survival rate (%) ([1]; test compound 10 μM + 1 μM H2O2) | Survival rate (%) ([1]; test compound 10 μM alone, without H2O2) | Survival rate (%) ([2]; test compound 10 μM + 0.1 μM staurosporin) | Survival rate (%) ([2]; test compound 10 μM alone, without staurosporin) | transfer rate into the brain (Kbrain) ([3]; calculated with Equations 1 and 2 (mean brain / mean plasma concentration)) | concentration in the plasma versus the brain tissue (in words) ([3]; metabolite after 1 mg/kg intravenous ginsenoside, FIG. 12) |
| --- | --- | --- | --- | --- | --- | --- | --- | --- | --- | --- | --- | --- | --- | --- |
| CC(C)=CCCC(C)(O)[C@H]1CC[C@]2(C)[C@@H]1[C@H](O)C[C@@H]1[C@@]3(C)CC[C@H](O)C(C)(C)[C@@H]3CC[C@]12C (stereo in doubt) [PPD, protopanaxadiol] | 219.6 ± 3.0% | 494.3 ± 3.5% | 89.2 ± 1.0% | 176.5 ± 3.5% | well detected | higher | no change | significantly increased |  |  |  |  |  |  |
| CC(C)=CCC[C@](C)(O)[C@H]1CC[C@]2(C)[C@@H]1[C@H](O)C[C@@H]1[C@@]3(C)CC[C@H](O)C(C)(C)[C@@H]3[C@@H](O)C[C@]12C [PPT, protopanaxatriol] | 381.3 ± 0.9% | 516.1 ± 1.6% | 107.8 ± 2.3% | 169.7 ± 1.6% | well detected | higher | no change | significantly increased | 457.8 ± 2.5% | 516.5 ± 1.2% | 104.6 ± 2.7% | 173.1 ± 1.2% | 130±46.4% | almost identical |
